The test system of assay [1] is cholesterol esterification in macrophages. Description: Inhibitory effect on cholesterol esterification in macrophages (J774 A.1 cells, AcLDL-loaded, [14C]oleate incorporation). The note with it: Mus musculus, Macrophage, read-out: Inhibition rate (%). The format is cell-based. The protocol:
Inhibitory effect on cholesterol esterification in macrophages
The test was carried out by a modification of the method of Goldstein et al. [Pro. Nat. Acad. Sci. USA 71, 4288 (1974)]. J774 A.1 cells, the mouse macropharge-like cell line, were suspended in Dulbecco's modified Eagle's medium (DMEM) containing 10% fetal calf serum (FCS), in a proportion of 3×10^5 cells per 2 ml and were seeded into in 6-well plates. The cells were cultured under a humidified atmosphere of 95% air/5% CO2 at 37° C. for 24 hours. The medium was replaced by 1 ml of DMEM containing 10% of FCS and 50 μg/ml of acetylated human low density lipoprotein (AcLDL), followed by culturing for 16 hours. Five microliters each compound was dissolved in dimethyl sulfoxide and solution was added to the medium, followed by culturing for another 2 hours. Then, [14C]oleate (2×10^6 dpm/well) bovine serum albumin complex was added in the medium. After 2 hours of culture cells were collected and the cholesterol-esterifying activity was determined by measuring radioactivity incorporated into cholesterol esters in the cells. The recovery of the cholesterol esters was determined by the addition of [3H]cholesteryl oleate, and the esterifying activity was corrected using the recovery. As to the inhibitory activity on cholesterol esterification of the compound to be tested, the inhibition rate was calculated by the following equation. [formula] wherein A: the cholesterol-esterifying activity of AcLDL-loaded cells to which the compound to be tested was-added.
B: the cholesterol-esterifying activity of AcLDL-loaded cells to which dimethyl sulfoxide was added.

In assay [2] the test system is serum cholesterol. Description: Serum cholesterol lowering activity in hamsters fed on a high-cholesterol diet. The format is in vivo, Male Syrian hamsters. The note with it: 30 mg per kg of body weight per day for 4 days, 24 hours after the last administration. On the procedure:
Serum cholesterol lowering activity in hamsters fed on a high-cholesterol diet
Male Syrian hamsters of 10-week-old were divided into three groups. The first group (normal group) was fed an ordinary diet for 4 days. The second group (control group) was fed a high cholesterol diet (containing 0.5% cholesterol and 8.0% coconut oil for 4 days. The third group (treated group) was fed a high cholesterol diet and was treated with a compound for 4 days. Simultaneously with the beginning of the above feeding, the compound suspended in a 0.5% carboxymethyl cellulose solution was administered to the treated group, in a dose of 30 mg (in terms of the compound) per kg of body weight per day for 4 days. A 0.5% carboxymethyl cellulose solution was also administered to the normal group and the control group in the same manner as above. After 24 hours of the last administration, blood was collected and the cholesterol concentration in serum was measured by an enzymatic method. The reduction rate of the total serum cholesterol concentration was calculated from values obtained for the three groups by the following equation. [formula] wherein A: the serum cholesterol concentration of the control group.
B: the serum cholesterol concentration of the compound treated group.
C: the serum cholesterol concentration of the normal group.

In assay [3] the target is T1, acyl-CoA:cholesterol O-acyltransferase (ACAT) (Oryctolagus cuniculus, UniProt G1SFD9).
T1 construct: The intestinal mucosa of a white rabbit was homogenized and microsomal fraction was obtained by stepwise centrifugation; from tissue; host or cells: intestinal mucosa of white rabbit, microsomal fraction
T1 sequence (G1SFD9 1-524): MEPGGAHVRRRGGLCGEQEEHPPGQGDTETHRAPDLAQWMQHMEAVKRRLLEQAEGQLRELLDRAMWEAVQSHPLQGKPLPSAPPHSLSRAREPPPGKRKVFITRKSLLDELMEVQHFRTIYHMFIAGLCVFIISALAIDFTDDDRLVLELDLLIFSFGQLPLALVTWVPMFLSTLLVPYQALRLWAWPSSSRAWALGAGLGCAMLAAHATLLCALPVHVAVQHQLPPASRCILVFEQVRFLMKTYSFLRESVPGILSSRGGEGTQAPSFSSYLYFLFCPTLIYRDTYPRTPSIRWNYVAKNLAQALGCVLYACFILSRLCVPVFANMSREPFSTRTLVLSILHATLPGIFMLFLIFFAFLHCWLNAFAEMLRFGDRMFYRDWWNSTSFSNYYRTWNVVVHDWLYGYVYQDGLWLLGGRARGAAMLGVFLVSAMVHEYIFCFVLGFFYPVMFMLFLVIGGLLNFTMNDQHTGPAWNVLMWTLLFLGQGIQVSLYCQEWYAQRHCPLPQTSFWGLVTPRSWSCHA
The assay can be described thus: Inhibitory activity on acyl-CoA:cholesterol O-acyltransferase (ACAT), intestinal mucosa microsomal fraction, [1-14C]oleyl-CoA incorporation into cholesterol esters. Format: biochemical, white rabbit. The note with it: read-out: Inhibition rate %. On the procedure: Inhibitory activity on acyl-CoA:cholesterol Oacyltransferase (ACAT)
The enzyme used in the test was prepared according to the method of Heider et al. [J. Lipid, Res. 24, 1127 (1983)]. The intestinal mucosa of a white rabbit was homogenized and microsomal fraction was obtained by stepwise centrifugation. The microsomal fraction was suspended in 0,154M phosphate buffer (pH 0 7.4) and stored at -80° C. until use.
ACAT activity was determined by a modification of the method of Helgerud et al. [J. Lipid Res. 22, 271 (1981)] by measuring radioactivity incorporated into cholesterol esters from [1-14C]oleyl-CoA, as an indication. As to the ACAT-inhibiting activity of each compound to be tested, the inhibition rate was calculated by the following equation.

Usually inhibition stands for the change of the read-out against control, counted positive when it falls.

`CCc1cccc(CC)c1NC(=O)Nc1oc2ccc(Cl)cc2c1-c1ccccc1Cl` [Compound 12, N-[5-Chloro-3-(2-chlorophenyl)benzofuran-2-yl]-N'-(2,6-diethylphenyl)urea]: in assay [1], the inhibition at 0.1 µM came out at 93% and the inhibition at 1 µM turned out to be 99.5%. Besides, in assay [2], the “Reduction rate (%) of the total serum cholesterol concentration” value (from here on “Reduction rate (%)”) was 55.0%. In assay [3], the inhibition at 0.01 µM stood at 82.9% and the inhibition at 1 µM stood at 99.4%.

On to `CCc1cccc(CC)c1NC(=O)Nc1oc2cc(C)c(C)cc2c1-c1ccccc1Cl` [Compound 37, N-[3-(2-Chlorophenyl)-5,6-dimethylbenzofuran-2-yl]-N'-(2,6-diethylphenyl)urea], for which the “Reduction rate (%)” value in assay [2] is listed as 59.3%. Further, in assay [3], the inhibition at 0.01 µM was 74.7% and the inhibition at 1 µM was determined as 99.5%.

`CCc1cccc(CC)c1NC(=O)Nc1sc2cc(C)c(C)cc2c1-c1ccccc1Cl` [Compound 80, N-[3-(2-Chlorophenyl)-5,6-dimethyl-1-benzothiophen-2-yl]-N'-(2,6-diethylphenyl)urea]: in assay [1], the inhibition at 0.1 µM was found to be 85.3% and the inhibition at 1 µM came out at 96.9%. Moreover, the “Reduction rate (%)” value in assay [2] came out at 85.9%. The inhibition at 0.01 µM in assay [3] is 69.9%.

In the case of `CCc1cccc(CC)c1NC(=O)Nc1sc2cc3c(cc2c1-c1ccccc1C)CCC3` [Compound 109, N-(2,6-Diethylphenyl)-N'-[3-(2-methylphenyl)-6,7-dihydro-5H-cyclopenta[f][1]benzothiophen-2-yl]urea], in assay [2], the “Reduction rate (%)” value was 71.5%. Besides, the inhibition at 0.01 µM in assay [3] was 80.1%.

Source of the values: patent USRE36832E, “N-heteroaryl-N'-phenylurea derivatives, their production and use” (Nihon Nohyaku Co., LTD, priority 1993, dated 2000).
